Earlier results, collected in patent US6051591A, “Diazabicyclooctane derivatives” (Merck Sharp & Dohme Ltd., priority 1995, dated 2000).

Key:
[1] = tested on: human 5-HT1Dα and 5-HT1Dβ receptor subtypes; conditions: cf. WO-A-91/17174, Table 1
[2] = therapeutic doses

SMILES: CNS(=O)(=O)Cc1ccc2[nH]cc(CCN(C)C)c2c1 [sumatriptan]
- discrimination between human 5-HT1Dα and 5-HT1Dβ receptor subtypes [1]: barely discriminates
- adverse cardiovascular events in humans [2]: certain adverse cardiovascular events
